Results: patent US20250352520A1, “USE OF DEXPRAMIPEXOLE FOR THE TREATMENT OF EOSINOPHILIC COPD” (Areteia Therapeutics, Inc., priority 2024, published 2025)
Like-named read-outs stand apart in the source and are kept apart here.

Key:
[1] = for CT Scan - Mucus Score, Change from Baseline / CT Scan - Mucus Score, Result: Week 16
Source text: Mucus dysfunction, a central pathology in patients with COPD, is characterized by excess mucus production, hypersecretion, and reduced clearance, leading to accumulation in the airways as mucus plugs. Computed tomography (CT) scans of individuals with COPD can be assessed by a physician or clinician trained in lung imaging. Mucus plug scoring is assigned based on the number of lung segments with mucus plugs, ranging from 0 (no mucus plugs seen on CT scan) to 20 (all lung segments with mucus plugs).
(§1) All eligible participants received inspiratory and expiratory CT scans at Baseline and at Week 16 to assess for changes in mucus plugs and airway architecture (e.g., changes in airway wall thickness).
[…] underwent at CT scan with mucus plug scoring.

[2] = for COPD Assessment - Total Score, CFB (Change from baseline), Max / COPD Assessment - Total Score, CFB (Change from baseline), Mean ± SD / COPD Assessment - Total Score, CFB (Change from baseline), Median / COPD Assessment - Total Score, CFB (Change from baseline), Min / COPD Assessment - Total Score, CFB (Change from baseline), Q1 / COPD Assessment - Total Score, CFB (Change from baseline), Q3 / COPD Assessment - Total Score, Observed, Max / COPD Assessment - Total Score, Observed, Mean ± SD / COPD Assessment - Total Score, Observed, Median / COPD Assessment - Total Score, Observed, Min / COPD Assessment - Total Score, Observed, Q1 / COPD Assessment - Total Score, Observed, Q3: Week 16, 150 mg BID
Source text: The CAT is a participant-completed instrument that can quantify the impact of COPD on the participant's health. It complements existing approaches to assessing COPD, such as FEV1 measurement.
The CAT has a scoring range of 0-40 (0 to 5 on 8 questions) with higher numbers indicating more severe symptoms.

[3] = Phase III, participants with ALS; cited from earlier work
[4] = for SGRQ-C Questionnaire - Total Score, CFB (Change from baseline), Max / SGRQ-C Questionnaire - Total Score, CFB (Change from baseline), Mean ± SD / SGRQ-C Questionnaire - Total Score, CFB (Change from baseline), Median / SGRQ-C Questionnaire - Total Score, CFB (Change from baseline), Min / SGRQ-C Questionnaire - Total Score, CFB (Change from baseline), Q1 / SGRQ-C Questionnaire - Total Score, CFB (Change from baseline), Q3 / SGRQ-C Questionnaire - Total Score, Observed, Max / SGRQ-C Questionnaire - Total Score, Observed, Mean ± SD / SGRQ-C Questionnaire - Total Score, Observed, Median / SGRQ-C Questionnaire - Total Score, Observed, Min / SGRQ-C Questionnaire - Total Score, Observed, Q1 / SGRQ-C Questionnaire - Total Score, Observed, Q3: Week 16, 150 mg BID
Source text: The SGRQ-C questionnaire was developed from the SGRQ which was designed to measure health impairment in patients with asthma and COPD. The SGRQ-C is a shorter version (40 items compared with 50 items in SGRQ) derived from the original version following detailed analysis of data from large studies in COPD. The FDA has stated that the SGRQ-C is acceptable for use as either a co-primary endpoint or as a secondary endpoint providing supporting evidence of efficacy in a clinical trial. In this study, assessment of SGRQ-C was a secondary endpoint.
The SGRQ-C total score is made up of three components: (1) symptoms frequency and severity of symptoms; (2) activity effect of disease on common daily physical activities; and (3) impacts psychosocial effects of the disease.
The threshold for a clinically significant difference between groups of participants and for changes within groups of participants was four units.

[5] = for CT Scan - Small Airways Disease, Change from Baseline / CT Scan - Small Airways Disease, Result / CT Scan Parametric Imaging - Emphysema, Change from Baseline / CT Scan Parametric Imaging - Emphysema, Result / CT Scan - Air Trapping Index -856 HU, Change from Baseline / CT Scan - Air Trapping Index -856 HU, Result: Week 16; for CT Scan - Air Trapping Index -856 HU, Change from Baseline: first Change column under heads Inspiratory | Expiratory; for CT Scan - Air Trapping Index -856 HU, Result: first Result column under heads Inspiratory | Expiratory
Source text: as §1

[6] = tested on: eosinophils in blood and airways; conditions: 150 mg BID dexpramipexole dihydrochloride; up to approximately
[7] = <50% AEC reduction at Week 16 (N = 4)
[8] = >=50% AEC reduction at Week 16 (N = 3)

CCCN[C@@H]1CCc2nc(N)sc2C1 [Dexpramipexole, (6R)-2-amino-4,5,6,7-tetrahydro-6-(propylamino)benzothiazole]
CT Scan - Mucus Score, Change from Baseline ([1]; Subject ID 10001-001-0001): 0.00
CT Scan - Mucus Score, Result ([1]; Subject ID 10001-001-0001): 1.00
CT Scan - Mucus Score, Change from Baseline ([1]; Subject ID 10001-001-0002): 0.00
CT Scan - Mucus Score, Result ([1]; Subject ID 10001-001-0002): 0.00
CT Scan - Mucus Score, Change from Baseline ([1]; Subject ID 10001-008-0002): 3.00
CT Scan - Mucus Score, Result ([1]; Subject ID 10001-008-0002): 3.00
CT Scan - Mucus Score, Change from Baseline ([1]; Subject ID 10001-010-0005): 0.00
CT Scan - Mucus Score, Result ([1]; Subject ID 10001-010-0005): 0.00
CT Scan - Mucus Score, Change from Baseline ([1]; Subject ID 10001-022-0001): −4.00
CT Scan - Mucus Score, Result ([1]; Subject ID 10001-022-0001): 0.00
CT Scan - Mucus Score, Change from Baseline ([1]; Subject ID 10001-022-0006): 3.00
CT Scan - Mucus Score, Result ([1]; Subject ID 10001-022-0006): 6.00
mucus plug score ([1]; one patient, week 16, score of 4 at baseline): 0
CAT total score, decrease compared to baseline ([2]; AECR≥0.5 patients, week 16): 8.7 points
COPD Assessment - Total Score, CFB (Change from baseline), Max [2, 7]: 0
COPD Assessment - Total Score, CFB (Change from baseline), Mean ± SD [2, 7]: −1.8 ± 1.50
COPD Assessment - Total Score, CFB (Change from baseline), Median [2, 7]: −2.0
COPD Assessment - Total Score, CFB (Change from baseline), Min [2, 7]: −3
COPD Assessment - Total Score, CFB (Change from baseline), Q1 [2, 7]: −3
COPD Assessment - Total Score, CFB (Change from baseline), Q3 [2, 7]: −1
COPD Assessment - Total Score, Observed, Max [2, 7]: 24
COPD Assessment - Total Score, Observed, Mean ± SD [2, 7]: 17.5 ± 8.27
COPD Assessment - Total Score, Observed, Median [2, 7]: 20.0
COPD Assessment - Total Score, Observed, Min [2, 7]: 6
COPD Assessment - Total Score, Observed, Q1 [2, 7]: 12
COPD Assessment - Total Score, Observed, Q3 [2, 7]: 24
COPD Assessment - Total Score, CFB (Change from baseline), Max [2, 8]: −8
COPD Assessment - Total Score, CFB (Change from baseline), Mean ± SD [2, 8]: −8.7 ± 1.15
COPD Assessment - Total Score, CFB (Change from baseline), Median [2, 8]: −8.0
COPD Assessment - Total Score, CFB (Change from baseline), Min [2, 8]: −10
COPD Assessment - Total Score, CFB (Change from baseline), Q1 [2, 8]: −10
COPD Assessment - Total Score, CFB (Change from baseline), Q3 [2, 8]: −8
COPD Assessment - Total Score, Observed, Max [2, 8]: 23
COPD Assessment - Total Score, Observed, Mean ± SD [2, 8]: 16.3 ± 5.86
COPD Assessment - Total Score, Observed, Median [2, 8]: 14.0
COPD Assessment - Total Score, Observed, Min [2, 8]: 12
COPD Assessment - Total Score, Observed, Q1 [2, 8]: 12
COPD Assessment - Total Score, Observed, Q3 [2, 8]: 23
absolute eosinophil count (AEC) [3]: substantial, durable, and targeted reduction
efficacy in ALS [3]: failed to demonstrate efficacy
SGRQ-C total score, decrease compared to baseline ([4]; AECR≥0.5 patients, 16 weeks): 12.08 points
SGRQ-C Questionnaire - Total Score, CFB (Change from baseline), Max [4, 7]: 3.9
SGRQ-C Questionnaire - Total Score, CFB (Change from baseline), Mean ± SD [4, 7]: −4.15 ± 6.817
SGRQ-C Questionnaire - Total Score, CFB (Change from baseline), Median [4, 7]: −5.18
SGRQ-C Questionnaire - Total Score, CFB (Change from baseline), Min [4, 7]: −10.1
SGRQ-C Questionnaire - Total Score, CFB (Change from baseline), Q1 [4, 7]: −9.8
SGRQ-C Questionnaire - Total Score, CFB (Change from baseline), Q3 [4, 7]: 1.5
SGRQ-C Questionnaire - Total Score, Observed, Max [4, 7]: 63.2
SGRQ-C Questionnaire - Total Score, Observed, Mean ± SD [4, 7]: 45.45 ± 19.893
SGRQ-C Questionnaire - Total Score, Observed, Median [4, 7]: 50.64
SGRQ-C Questionnaire - Total Score, Observed, Min [4, 7]: 17.3
SGRQ-C Questionnaire - Total Score, Observed, Q1 [4, 7]: 32.1
SGRQ-C Questionnaire - Total Score, Observed, Q3 [4, 7]: 58.8
SGRQ-C Questionnaire - Total Score, CFB (Change from baseline), Max [4, 8]: −6.2
SGRQ-C Questionnaire - Total Score, CFB (Change from baseline), Mean ± SD [4, 8]: −12.08 ± 5.544
SGRQ-C Questionnaire - Total Score, CFB (Change from baseline), Median [4, 8]: −12.76
SGRQ-C Questionnaire - Total Score, CFB (Change from baseline), Min [4, 8]: −17.2
SGRQ-C Questionnaire - Total Score, CFB (Change from baseline), Q1 [4, 8]: −17.2
SGRQ-C Questionnaire - Total Score, CFB (Change from baseline), Q3 [4, 8]: −6.2
SGRQ-C Questionnaire - Total Score, Observed, Max [4, 8]: 45.0
SGRQ-C Questionnaire - Total Score, Observed, Mean ± SD [4, 8]: 40.39 ± 7.250
SGRQ-C Questionnaire - Total Score, Observed, Median [4, 8]: 44.09
SGRQ-C Questionnaire - Total Score, Observed, Min [4, 8]: 32.0
SGRQ-C Questionnaire - Total Score, Observed, Q1 [4, 8]: 32.0
SGRQ-C Questionnaire - Total Score, Observed, Q3 [4, 8]: 45.0
CT Scan - Small Airways Disease, Change from Baseline ([5]; Subject ID 10001-001-0001): −7.12
CT Scan - Small Airways Disease, Result ([5]; Subject ID 10001-001-0001): 25.72
CT Scan Parametric Imaging - Emphysema, Change from Baseline ([5]; Subject ID 10001-001-0001): 2.41
CT Scan Parametric Imaging - Emphysema, Result ([5]; Subject ID 10001-001-0001): 36.28
CT Scan - Air Trapping Index -856 HU, Change from Baseline ([5]; Subject ID 10001-001-0001): −0.29%
CT Scan - Air Trapping Index -856 HU, Result ([5]; Subject ID 10001-001-0001): 49.57%
CT Scan - Small Airways Disease, Change from Baseline ([5]; Subject ID 10001-008-0002): 2.18
CT Scan - Small Airways Disease, Result ([5]; Subject ID 10001-008-0002): 51.14
CT Scan Parametric Imaging - Emphysema, Change from Baseline ([5]; Subject ID 10001-008-0002): −0.73
CT Scan Parametric Imaging - Emphysema, Result ([5]; Subject ID 10001-008-0002): 35.88
CT Scan - Air Trapping Index -856 HU, Change from Baseline ([5]; Subject ID 10001-008-0002): 0.57%
CT Scan - Air Trapping Index -856 HU, Result ([5]; Subject ID 10001-008-0002): 68.06%
CT Scan - Small Airways Disease, Change from Baseline ([5]; Subject ID 10001-010-0005): −3.80
CT Scan - Small Airways Disease, Result ([5]; Subject ID 10001-010-0005): 39.08
CT Scan Parametric Imaging - Emphysema, Change from Baseline ([5]; Subject ID 10001-010-0005): 0.16
CT Scan Parametric Imaging - Emphysema, Result ([5]; Subject ID 10001-010-0005): 12.11
CT Scan - Air Trapping Index -856 HU, Change from Baseline ([5]; Subject ID 10001-010-0005): −2.18%
CT Scan - Air Trapping Index -856 HU, Result ([5]; Subject ID 10001-010-0005): 29.57%
CT Scan - Small Airways Disease, Change from Baseline ([5]; Subject ID 10001-022-0001): −4.12
CT Scan - Small Airways Disease, Result ([5]; Subject ID 10001-022-0001): 46.36
CT Scan Parametric Imaging - Emphysema, Change from Baseline ([5]; Subject ID 10001-022-0001): −4.75
CT Scan Parametric Imaging - Emphysema, Result ([5]; Subject ID 10001-022-0001): 8.59
CT Scan - Air Trapping Index -856 HU, Change from Baseline ([5]; Subject ID 10001-022-0001): −11.40%
CT Scan - Air Trapping Index -856 HU, Result ([5]; Subject ID 10001-022-0001): 27.88%
CT scoring for small airway disease ([5]; all patients): All patients showed an improvement in scoring
CT scoring for Air Trapping, change ([5]; one patient): −11.40
CT scoring for emphysema, decrease ([5]; one patient): 4.75 points
CT scoring for small airway disease, improvement ([5]; one patient): 7.12 points
reductions of eosinophils in blood and airways [6]: ≤ 80%
